Reference: patent US9873696B2, “Neprilysin inhibitors” (THERAVANCE BIOPHARMA R&D IP, LLC, priority 2010, dated 2018)

The compounds below were run against T1, human NEP (Homo sapiens, UniProt P08473) (assay: In vitro enzyme inhibition assay at human NEP (Assay 1)). Conditions: recombinant enzyme, fluorogenic peptide substrate, 37° C.
T1 construct: purchased R&D Systems, Minneapolis, Minn; 1182-ZN
Assay type: biochemical
Summary of the method: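 Recombinant enzyme preincubated with compound 30 min at 37 °C, then 10 μM Mca-D-Arg-Arg-Leu-Dap-(Dnp)-OH added in 50 mM HEPES pH 7.5, 100 mM NaCl, 0.01% Tween-20, 10 μM ZnSO4; stopped after 20 min with acetic acid. Fluorescence read at 320/405 nm; Ki from nonlinear fit of v=v0/[1+(I/K′)], reported as pKi.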

T1 sequence (P08473 whole entry): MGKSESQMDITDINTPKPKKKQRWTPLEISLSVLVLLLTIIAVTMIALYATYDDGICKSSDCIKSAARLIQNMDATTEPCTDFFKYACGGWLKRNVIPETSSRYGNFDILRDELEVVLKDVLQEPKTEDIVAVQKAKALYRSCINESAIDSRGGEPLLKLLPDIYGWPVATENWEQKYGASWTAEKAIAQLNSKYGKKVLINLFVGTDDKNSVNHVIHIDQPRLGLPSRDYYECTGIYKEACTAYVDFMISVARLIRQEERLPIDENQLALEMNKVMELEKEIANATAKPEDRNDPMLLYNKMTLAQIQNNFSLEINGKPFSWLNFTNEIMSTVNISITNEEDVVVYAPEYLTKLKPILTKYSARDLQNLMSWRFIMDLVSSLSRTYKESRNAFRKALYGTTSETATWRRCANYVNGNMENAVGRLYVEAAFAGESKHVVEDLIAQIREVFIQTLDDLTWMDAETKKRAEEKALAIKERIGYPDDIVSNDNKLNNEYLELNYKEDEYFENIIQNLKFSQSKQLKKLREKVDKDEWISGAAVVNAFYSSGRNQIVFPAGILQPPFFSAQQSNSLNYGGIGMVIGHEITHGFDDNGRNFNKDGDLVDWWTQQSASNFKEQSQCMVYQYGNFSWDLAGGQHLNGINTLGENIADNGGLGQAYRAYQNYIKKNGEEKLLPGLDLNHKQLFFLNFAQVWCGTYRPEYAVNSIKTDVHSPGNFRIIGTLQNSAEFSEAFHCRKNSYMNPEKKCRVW

| SMILES | Ki |
| --- | --- |
| O=C(NN(Cc1ccc(-c2cc(Cl)ccc2F)cc1)C[C@@H](O)C(=O)O)c1cc(-c2cccc(Cl)c2)no1 [Example 8-16, (R)-3-{N-(5′-Chloro-2′-fluoro-biphenyl-4-ylmethyl)-N′-[3-(3-chloro-phenyl)-isoxazole-5-carbonyl]-hydrazino}-2-hydroxy-propionic acid] | ≤ 1 nM |
| O=C(NN(Cc1ccc(-c2cc(Cl)ccc2F)cc1)C[C@@H](O)C(=O)O)c1cc(-c2ccccc2Cl)no1 [Example 8-17, (R)-3-{N-(5′-Chloro-2′-fluoro-biphenyl-4-ylmethyl)-N′-[3-(2-chloro-phenyl)-isoxazole-5-carbonyl]-hydrazino}-2-hydroxy-propionic acid] | ≤ 1 nM |
| O=C(NN(Cc1ccc(-c2cc(Cl)ccc2F)cc1)C[C@@H](O)C(=O)O)c1cc(-c2ccccc2F)no1 [Example 8-18, (R)-3-{N-(5′-Chloro-2′-fluoro-biphenyl-4-ylmethyl)-N′-[3-(2-fluoro-phenyl)-isoxazole-5-carbonyl]-hydrazino}-2-hydroxy-propionic acid] | ≤ 1 nM |
| O=C(NN(Cc1ccc(-c2cccc(Cl)c2F)cc1)C[C@@H](O)C(=O)O)c1cc(O)no1 [Example 8-21, (R)-3-[N-(3′-Chloro-2′-fluoro-biphenyl-4-ylmethyl)-N′-(3-hydroxy-isoxazole-5-carbonyl)-hydrazino]-2-hydroxy-propionic acid] | 1.26 to 10 nM |
| O=C(NN(Cc1ccc(-c2cc(Cl)ccc2Cl)cc1)C[C@H](O)C(=O)O)c1cc(O)no1 [Example 8-22, (S)-3-[N-(2′,5′-Dichloro-biphenyl-4-ylmethyl)-N′-(3-hydroxy-isoxazole-5-carbonyl)-hydrazino]-2-hydroxy-propionic acid] | ≤ 1 nM |
| Cc1cc(Cl)cc(-c2ccc(CN(C[C@H](O)C(=O)O)NC(=O)c3cc(O)no3)cc2)c1F [Example 8-23, (S)-3-[N-(5′-Chloro-2′-fluoro-3′-methyl-biphenyl-4-ylmethyl)-N′-(3-hydroxy-isoxazole-5-carbonyl)-hydrazino]-2-hydroxy-propionic acid] | 1.26 to 10 nM |
| O=C(NN(Cc1ccc(-c2cc(F)cc(Cl)c2)cc1)C[C@H](O)C(=O)O)c1cc(O)no1 [Example 8-24, (S)-3-[N-(5′-Chloro-3′-fluoro-biphenyl-4-ylmethyl)-N′-(3-hydroxy-isoxazole-5-carbonyl)-hydrazino]-2-hydroxy-propionic acid] | 1.26 to 10 nM |
| O=C(NN(Cc1ccc(-c2cc(Cl)cc(Cl)c2)cc1)C[C@@H](O)C(=O)O)c1cc(O)no1 [Example 8-25, (R)-3-[N-(3′,5′-Dichloro-biphenyl-4-ylmethyl)-N′-(3-hydroxy-isoxazole-5-carbonyl)-hydrazino]-2-hydroxy-propionic acid] | ≤ 1 nM |
| O=C(NN(Cc1ccc(-c2cc(F)cc(F)c2)cc1)C[C@H](O)C(=O)O)c1cc(O)no1 [Example 8-26, (S)-3-[N-(3′,5′-Difluoro-biphenyl-4-ylmethyl)-N′-(3-hydroxy-isoxazole-5-carbonyl)-hydrazino]-2-hydroxy-propionic acid] | 12.6 to 100 nM |
| O=C(NN(Cc1ccc(-c2cc(O)cc(Cl)c2)cc1)C[C@H](O)C(=O)O)c1cc(O)no1 [Example 8-27, (S)-3-[N-(5′-Chloro-3′-hydroxy-biphenyl-4-ylmethyl)-N′-(3-hydroxy-isoxazole-5-carbonyl)-hydrazino]-2-hydroxy-propionic acid] | ≤ 1 nM |
| Cc1c(Cl)cc(Cl)cc1-c1ccc(CN(C[C@H](O)C(=O)O)NC(=O)c2cc(O)no2)cc1 [Example 8-28, (S)-3-[N-(3′,5′-Dichloro-2′-methyl-biphenyl-4-ylmethyl)-N′-(3-hydroxy-isoxazole-5-carbonyl)-hydrazino]-2-hydroxy-propionic acid] | 12.6 to 100 nM |
| O=C(NN(Cc1ccc(-c2cc(Cl)ccc2F)cc1)C[C@@H](O)C(=O)O)c1cc(Cl)no1 [Example 8-29, (R)-3-[N-(5′-Chloro-2′-fluoro-biphenyl-4-ylmethyl)-N′-(3-chloro-isoxazole-5-carbonyl)-hydrazino]-2-hydroxy-propionic acid] | 1.26 to 10 nM |
| CC(C)Cc1cc(C(=O)NN(Cc2ccc(-c3cc(Cl)ccc3F)cc2)C[C@@H](O)C(=O)O)on1 [Example 8-30, (R)-3-[N-(5′-Chloro-2′-fluoro-biphenyl-4-ylmethyl)-N′-(3-isobutyl-isoxazole-5-carbonyl)-hydrazino]-2-hydroxy-propionic acid] | ≤ 1 nM |
| CCCc1cc(C(=O)NN(Cc2ccc(-c3cc(Cl)ccc3F)cc2)C[C@@H](O)C(=O)O)on1 [Example 8-31, (R)-3-[N-(5′-Chloro-2′-fluoro-biphenyl-4-ylmethyl)-N′-(3-propyl-isoxazole-5-carbonyl)-hydrazino]-2-hydroxy-propionic acid] | ≤ 1 nM |
| CC(C)c1cc(C(=O)NN(Cc2ccc(-c3cc(Cl)ccc3F)cc2)C[C@@H](O)C(=O)O)on1 [Example 8-32, (R)-3-[N-(5′-Chloro-2′-fluoro-biphenyl-4-ylmethyl)-N′-(3-isopropyl-isoxazole-5-carbonyl)-hydrazino]-2-hydroxy-propionic acid] | ≤ 1 nM |
| CC(C)(C)c1cc(C(=O)NN(Cc2ccc(-c3cc(Cl)ccc3F)cc2)C[C@@H](O)C(=O)O)on1 [Example 8-33, (R)-3-[N′-(3-tert-Butyl-isoxazole-5-carbonyl)-N-(5′-chloro-2′-fluoro-biphenyl-4-ylmethyl)-hydrazino]-2-hydroxy-propionic acid] | 1.26 to 10 nM |
| O=C(NN(Cc1ccc(-c2cc(Cl)ccc2F)cc1)C[C@@H](O)C(=O)O)c1cc(-c2cccnc2)on1 [Example 8-34, (R)-3-[N-(5′-Chloro-2′-fluoro-biphenyl-4-ylmethyl)-N′-(5-pyridin-3-yl-isoxazole-3-carbonyl)-hydrazino]-2-hydroxy-propionic acid] | 1.26 to 10 nM |
| CN(C)C(=O)c1cc(C(=O)NN(Cc2ccc(-c3cc(Cl)ccc3F)cc2)C[C@@H](O)C(=O)O)[nH]n1 [Example 8-35, (R)-3-[N-(5′-Chloro-2′-fluoro-biphenyl-4-ylmethyl)-N′-(5-dimethylcarbamoyl-2H-pyrazole-3-carbonyl)-hydrazino]-2-hydroxy-propionic acid] | ≤ 1 nM |
| O=C(NN(Cc1ccc(-c2cc(Cl)ccc2F)cc1)C[C@@H](O)C(=O)O)c1cc(-c2ccccn2)n[nH]1 [Example 8-36, (R)-3-[N-(5′-Chloro-2′-fluoro-biphenyl-4-ylmethyl)-N′-(5-pyridin-2-yl-2H-pyrazole-3-carbonyl)-hydrazino]-2-hydroxy-propionic acid] | ≤ 1 nM |
| O=C(NN(Cc1ccc(-c2cc(Cl)ccc2F)cc1)C[C@@H](O)C(=O)O)c1cc(-c2ccccc2O)n[nH]1 [Example 8-38, (R)-3-{N-(5′-Chloro-2′-fluoro-biphenyl-4-ylmethyl)-N′-[5-(2-hydroxy-phenyl)-2H-pyrazole-3-carbonyl]-hydrazino}-2-hydroxy-propionic acid] | ≤ 1 nM |
| COc1ccccc1-c1cc(C(=O)NN(Cc2ccc(-c3cc(Cl)ccc3F)cc2)C[C@@H](O)C(=O)O)[nH]n1 [Example 8-39, (R)-3-{N-(5′-Chloro-2′-fluoro-biphenyl-4-ylmethyl)-N′-[5-(2-methoxy-phenyl)-2H-pyrazole-3-carbonyl]-hydrazino}-2-hydroxy-propionic acid] | ≤ 1 nM |
| CC(C)(O)c1cc(C(=O)NN(Cc2ccc(-c3cc(Cl)ccc3F)cc2)C[C@@H](O)C(=O)O)[nH]n1 [Example 8-40, (R)-3-{N-(5′-Chloro-2′-fluoro-biphenyl-4-ylmethyl)-N′-[5-(1-hydroxy-1-methyl-ethyl)-2H-pyrazole-3-carbonyl]-hydrazino}-2-hydroxy-propionic acid] | ≤ 1 nM |
| O=C(NN(Cc1ccc(-c2cc(Cl)ccc2F)cc1)C[C@@H](O)C(=O)O)c1cc(-c2cc(Cl)ccc2Cl)n[nH]1 [Example 8-41, (R)-3-{N-(5′-Chloro-2′-fluoro-biphenyl-4-ylmethyl)-N′-[5-(2,5-dichloro-phenyl)-2H-pyrazole-3-carbonyl]-hydrazino}-2-hydroxy-propionic acid] | ≤ 1 nM |
| CCCCc1cc(C(=O)NN(Cc2ccc(-c3cc(Cl)ccc3F)cc2)C[C@@H](O)C(=O)O)[nH]n1 [Example 8-42, (R)-3-[N′-(5-Butyl-2H-pyrazole-3-carbonyl)-N-(5′-chloro-2′-fluoro-biphenyl-4-ylmethyl)-hydrazino]-2-hydroxy-propionic acid] | ≤ 1 nM |
| O=C(NN(Cc1ccc(-c2cc(Cl)ccc2F)cc1)C[C@@H](O)C(=O)O)c1cc(C2CC2)n[nH]1 [Example 8-43, (R)-3-[N-(5′-Chloro-2′-fluoro-biphenyl-4-ylmethyl)-N′-(5-cyclopropyl-2H-pyrazole-3-carbonyl)-hydrazino]-2-hydroxy-propionic acid] | ≤ 1 nM |
| CC(C)c1cc(C(=O)NN(Cc2ccc(-c3cc(Cl)ccc3F)cc2)C[C@@H](O)C(=O)O)[nH]n1 [Example 8-44, (R)-3-[N-(5′-Chloro-2′-fluoro-biphenyl-4-ylmethyl)-N′-(5-isopropyl-2H-pyrazole-3-carbonyl)-hydrazino]-2-hydroxy-propionic acid] | ≤ 1 nM |
| CC(=O)c1cc(C(=O)NN(Cc2ccc(-c3cc(Cl)ccc3F)cc2)C[C@H](O)C(=O)O)[nH]n1 [Example 8-45, (S)-3-[N′-(5-Acetyl-2H-pyrazole-3-carbonyl)-N-(5′-chloro-2′-fluoro-biphenyl-4-ylmethyl)-hydrazino]-2-hydroxy-propionic acid] | ≤ 1 nM |
| CC(=O)c1cc(C(=O)NN(Cc2ccc(-c3cc(Cl)ccc3C)cc2)C[C@H](O)C(=O)O)[nH]n1 [Example 8-47, (S)-3-[N′-(5-Acetyl-2H-pyrazole-3-carbonyl)-N-(5′-chloro-2′-methyl-biphenyl-4-ylmethyl)-hydrazino]-2-hydroxy-propionic acid] | 1.26 to 10 nM |
| CC(=O)c1cc(C(=O)NN(Cc2ccc(-c3cc(Cl)ccc3Cl)cc2)C[C@H](O)C(=O)O)[nH]n1 [Example 8-48, (S)-3-[N′-(5-Acetyl-2H-pyrazole-3-carbonyl)-N-(2′,5′-dichloro-biphenyl-4-ylmethyl)-hydrazino]-2-hydroxy-propionic acid] | 1.26 to 10 nM |
